Like-named read-outs stand apart in the source and are kept apart here. Each block holds one compound with its values, some of them ahead of it.
Key:
[1] = target: T1, human platelet GPIIbIIIa receptor (Homo sapiens, UniProt P05106+P08514); assay: modified fibrinogen-GPIIbIIIa ELISA (inhibition of fibrinogen binding to purified human platelet GPIIbIIIa receptor)
T1 construct: purified human platelet GPIIbIIIa receptor; from tissue; host or cells: human platelets (purified, solubilized receptor)
Procedure: In-vitro biological activity of the compounds of Formula I and II are monitored using a modified fibrinogen-GPIIbIIIa ELISA based on the method of Nachman and Leung (J. Clin. Invest. 69:263-269 (1982)) which measures the inhibition of fibrinogen binding to purified human platelet GPIIbIIIa receptor. Human fibrinogen is prepared by the method of Lipinska, et al. (J. Lab. Clin. Med. 84:509-516 (1974)). Platelet GPIIb IIIa is prepared by the method of Fitzgerald, et al., Anal. Biochem.,151:169-177 (1985).
Briefly, microtiter plates are coated with fibrinogen ([…]) and then blocked with TACTS buffer containing 0.5% bovine serum albumin (BSA). (TACTS buffer contains 20mM Tris.HCl, pH 7.5, 0.02% sodium azide, 2 mM calcium chloride, 0.05% Tween 20, 150 mM sodium chloride.) The plate is washed with phosphate buffered saline (PBS) containing 0.01% Tween 20 and the sample to be determined added, followed by addition of solubilized GP IIbIIIa receptor ([…]) in TACTS, 0.5% BSA. After incubation, the plate is washed and 1 mg/ml of murine anti-platelet monoclonal antibody AP3 (Newman et al., Blood 65:227-232 (1985)) is added. After another wash a goat anti-mouse IgG conjugated to horseradish peroxidase is added. A final wash is performed and developing reagent buffer (10 mg o-phenylenediamine dihydrochloride, 0.0212% hydrogen peroxide, 0.22 mM citrate, 50 mM phosphate, pH 5.0) is added and then incubated until color develops. The reaction is stopped with 1N sulfuric acid and the absorbance at 492 nm is recorded.

[2] = tested on: human platelet rich plasma (platelet aggregation); assay: platelet aggregation (PA) inhibition assay in human platelet rich plasma; format: cell-based
Procedure: In addition to the GPIIb IIIa ELISA assay, platelet aggregation assays may be performed in human platelet rich plasma (PRP). […] The blood is centrifuged at 160×g for 10 min at 22° C. and then allowed to stand for 5 min after which the PRP is decanted. Platelet poor plasma (PPP) is isolated from the remaining blood after centrifugation at 2000×g for 25 min. The platelet count of the PRP is adjusted to ca. 300,000 per microliter with PPP.
A 225 mL aliquot of PRP plus 25 mL of either a dilution of the test sample or a control (PBS) is incubated for 5 min in a Chrono-log Whole Blood Aggregometer at 25° C. An aggregating agent (collagen, 1 mg/ml; U46619, 100 ng/ml; or ADP, 8 mM) is added and the platelet aggregation recorded.

GPIIb IIIa = conditions: result in words, EP 372 486 (Hoffmann La Roche); cited from earlier work
[3] = ELISA, read-out: IC50 Fg/IIbIIIa
[4] = Platelet, read-out: IC50 PA(citrate)
[5] = Platelet, read-out: IC50 PA(heparin)
[6] = platelet aggregation, citrate, read-out: IC50 PA(citrate)
[7] = platelet aggregation, heparin, read-out: IC50 PA(heparin)

T1 sequence (P08514 32-887 limits assumed): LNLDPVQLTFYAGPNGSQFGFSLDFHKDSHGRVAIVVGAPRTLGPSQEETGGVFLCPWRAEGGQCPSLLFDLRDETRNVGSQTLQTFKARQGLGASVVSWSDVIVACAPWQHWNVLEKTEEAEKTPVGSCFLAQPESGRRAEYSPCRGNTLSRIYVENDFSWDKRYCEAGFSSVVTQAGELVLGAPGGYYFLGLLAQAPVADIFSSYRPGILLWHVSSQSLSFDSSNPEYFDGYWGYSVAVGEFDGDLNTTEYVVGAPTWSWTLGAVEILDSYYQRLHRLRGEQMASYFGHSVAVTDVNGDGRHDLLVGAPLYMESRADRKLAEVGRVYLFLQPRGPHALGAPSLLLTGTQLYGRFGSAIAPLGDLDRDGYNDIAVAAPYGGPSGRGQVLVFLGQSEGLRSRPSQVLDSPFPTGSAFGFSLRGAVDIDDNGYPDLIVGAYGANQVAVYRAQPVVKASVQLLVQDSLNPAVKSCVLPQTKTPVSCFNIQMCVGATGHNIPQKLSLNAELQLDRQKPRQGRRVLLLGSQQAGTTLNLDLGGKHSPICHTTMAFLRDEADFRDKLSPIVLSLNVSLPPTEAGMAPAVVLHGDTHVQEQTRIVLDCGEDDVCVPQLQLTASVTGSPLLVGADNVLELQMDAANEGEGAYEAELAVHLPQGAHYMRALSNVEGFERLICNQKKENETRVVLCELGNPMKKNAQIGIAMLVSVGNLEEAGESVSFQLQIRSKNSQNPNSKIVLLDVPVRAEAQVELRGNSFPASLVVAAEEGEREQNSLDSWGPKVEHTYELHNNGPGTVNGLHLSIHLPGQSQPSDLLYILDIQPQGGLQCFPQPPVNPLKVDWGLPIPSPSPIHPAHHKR
T1 sequence (P08514 891-1039 limits assumed): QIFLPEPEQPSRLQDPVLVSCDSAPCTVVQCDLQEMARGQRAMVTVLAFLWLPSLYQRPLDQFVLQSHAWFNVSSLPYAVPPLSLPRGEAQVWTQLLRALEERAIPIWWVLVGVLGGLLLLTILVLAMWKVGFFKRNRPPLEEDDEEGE
T1 sequence (P05106 27-788): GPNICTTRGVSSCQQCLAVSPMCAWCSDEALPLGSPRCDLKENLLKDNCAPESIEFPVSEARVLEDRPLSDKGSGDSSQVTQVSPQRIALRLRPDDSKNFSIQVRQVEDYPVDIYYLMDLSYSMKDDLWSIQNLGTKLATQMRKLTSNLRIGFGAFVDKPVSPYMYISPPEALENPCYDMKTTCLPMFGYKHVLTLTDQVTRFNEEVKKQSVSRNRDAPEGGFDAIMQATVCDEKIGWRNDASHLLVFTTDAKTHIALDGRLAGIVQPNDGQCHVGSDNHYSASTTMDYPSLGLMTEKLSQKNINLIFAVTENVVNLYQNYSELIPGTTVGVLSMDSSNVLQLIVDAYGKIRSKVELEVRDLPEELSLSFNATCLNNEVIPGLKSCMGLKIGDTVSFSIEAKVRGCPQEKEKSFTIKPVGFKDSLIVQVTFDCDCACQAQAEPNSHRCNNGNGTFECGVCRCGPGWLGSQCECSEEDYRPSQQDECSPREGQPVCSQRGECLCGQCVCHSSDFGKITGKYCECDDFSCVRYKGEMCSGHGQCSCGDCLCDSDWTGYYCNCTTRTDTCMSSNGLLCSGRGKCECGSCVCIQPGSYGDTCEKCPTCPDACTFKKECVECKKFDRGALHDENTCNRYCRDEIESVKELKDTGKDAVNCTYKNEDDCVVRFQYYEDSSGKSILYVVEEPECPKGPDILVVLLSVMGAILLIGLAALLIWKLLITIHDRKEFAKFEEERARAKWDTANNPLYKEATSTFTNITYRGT

Structure (SMILES): Cc1cnc2n1-c1ccc(C#Cc3ccc(C(=N)N)cc3)cc1C(=O)N(CCC(=O)O)C2 [p-H2 N(NH)CC6 H4 CC]
IC50 [1, 3]: 4 nM | IC50 [2, 4]: 93 nM | IC50 [2, 5]: 240 nM

Structure (SMILES): Cc1cnc2n1-c1ccc(OCc3ccc(C(=N)N)cc3)cc1C(=O)N(CCC(=O)O)C2 [p-H2 N(NH)CC6 H4 CH2 O]
IC50 [1, 3]: 9 nM | IC50 [2, 4]: 133 nM | IC50 [2, 5]: 220 nM

IC50 ([1]; internal standard, measured according to the assays described herein, read-out: Fg/GPIIb IIIa ELISA IC50): ~25 nM | IC50 ([2]; Platelet, internal standard, measured according to the assays described herein, anticoagulant not stated, read-out: PA inhibition assay IC50): ~3000 nM
Structure (SMILES): N=C(N)c1ccc(C(=O)Nc2cccc(C(=O)NCCC(=O)O)c2)cc1 [N-[3-(4-amidinobenzamido)benzoyl]-3-aminoproprionoic acid, reference compound]

Structure (SMILES): Cc1nnc2n1-c1ccc(OCc3ccc(C(=N)N)cc3)cc1C(=O)N(CCC(=O)O)C2 [p-H2 N(NH)CC6 H4 CH2 O]
IC50 [2, 6]: 5 nM | IC50 [2, 7]: 86 nM

IC50 [2, 6]: 540 nM | IC50 [2, 7]: 1700 nM
Structure (SMILES): N=C(N)c1ccc(COc2ccc3c(c2)C(=O)N(CCC(=O)O)Cc2nc4ccccc4c(=O)n2-3)cc1 [p-H2 N(NH)CC6 H4 CH2 O]

Structure (SMILES): Cc1cnc2n1-c1ccc(C#CCCCCN)cc1C(=O)N(CCC(=O)O)C2 [H2 N(CH2)4 CC]
IC50 [1, 3]: 57 nM | IC50 [2, 4]: 8290 nM

Structure (SMILES): N=C(N)c1ccc(C(=O)Nc2cccc(C(=O)NCCC(=O)O)c2)cc1 [drawing 2]
IC50 in an ELISA measurement of fibrinogen GPIIb IIIa binding (GPIIb IIIa): particular low IC50

Source: US5493020A, “Tricyclic inhibitors of the GPIIb IIIa receptor” (Genentech, Inc., priority 1993, dated 1996)
